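Assay format: 96-well plates, 48-hour exposure. Here, GI50 denotes the concentration required for 50% inhibition of growth. TGI: total growth inhibition.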
Assays:
Test in all cases: inhibition of tumour cell growth, NCI panel, 48 h
NCI-H460 lung = tested on: NCI-H460 lung
HL-60(TB) leukemia = tested on: HL-60(TB) leukemia
T-47D breast = tested on: T-47D breast
SF-539 CNS = tested on: SF-539 CNS
OVCAR-3 ovarian = tested on: OVCAR-3 ovarian
SF-268 CNS = tested on: SF-268 CNS
HOP-92 NSCLC = tested on: HOP-92 NSCLC
A498 renal = tested on: A498 renal
UACC-62 melanoma = tested on: UACC-62 melanoma
HCT-15 colon = tested on: HCT-15 colon
PC-3 prostate = tested on: PC-3 prostate
OVCAR-8 ovarian = tested on: OVCAR-8 ovarian
HS 578T breast = tested on: HS 578T breast
ACHN renal = tested on: ACHN renal
OVCAR-4 ovarian = tested on: OVCAR-4 ovarian
MDA-MB-231 breast = tested on: MDA-MB-231 breast
U251 CNS = tested on: U251 CNS
SNB-19 CNS = tested on: SNB-19 CNS
NCI-H226 lung = tested on: NCI-H226 lung
SN12C renal = tested on: SN12C renal
COLO 205 colon = tested on: COLO 205 colon
NCI-H23 lung = tested on: NCI-H23 lung
SNB-75 CNS = tested on: SNB-75 CNS
KM12 colon = tested on: KM12 colon
RPMI-8226 leukemia = tested on: RPMI-8226 leukemia
UACC-257 melanoma = tested on: UACC-257 melanoma
SK-OV-3 ovarian = tested on: SK-OV-3 ovarian
HCC-2998 colon = tested on: HCC-2998 colon
SF-295 CNS = tested on: SF-295 CNS
786-0 renal = tested on: 786-0 renal
MCF7 breast = tested on: MCF7 breast
EKVX NSCLC = tested on: EKVX NSCLC
TK-10 renal = tested on: TK-10 renal
BT-549 breast = tested on: BT-549 breast
LOX IMVI melanoma = tested on: LOX IMVI melanoma
HOP-62 NSCLC = tested on: HOP-62 NSCLC
OVCAR-5 ovarian = tested on: OVCAR-5 ovarian
RXF 393 renal = tested on: RXF 393 renal
A549 NSCLC = tested on: A549 NSCLC
SW-620 colon = tested on: SW-620 colon
SK-MEL-28 melanoma = tested on: SK-MEL-28 melanoma
DU-145 prostate = tested on: DU-145 prostate
CAKI-1 renal = tested on: CAKI-1 renal
HT29 colon = tested on: HT29 colon
M14 melanoma = tested on: M14 melanoma
HCT-116 colon = tested on: HCT-116 colon
NCI/ADR-RES ovarian = tested on: NCI/ADR-RES ovarian
MDA-MB-435 = tested on: MDA-MB-435
SK-MEL-5 melanoma = tested on: SK-MEL-5 melanoma
MALME-3M melanoma = tested on: MALME-3M melanoma
SR leukemia = tested on: SR leukemia
MOLT-4 leukemia = tested on: MOLT-4 leukemia
K-562 leukemia = tested on: K-562 leukemia
IGROV1 ovarian = tested on: IGROV1 ovarian
SK-MEL-2 melanoma = tested on: SK-MEL-2 melanoma
CCRF-CEM leukemia = tested on: CCRF-CEM leukemia

CN1CCN(c2ccc3c4c(cccc24)C(=O)N(CCN2CCN(CCCN4CCN(CCN5C(=O)c6cccc7c(N8CCN(C)CC8)ccc(c67)C5=O)CC4)CC2)C3=O)CC1
GI50 (NCI-H460 lung): 5.54 µM
TGI (NCI-H460 lung): 33.5 µM
GI50 (HL-60(TB) leukemia): 1.49 µM
TGI (HL-60(TB) leukemia): 7.15 µM
GI50 (T-47D breast): 19.8 µM
TGI (T-47D breast): 50 µM
GI50 (SF-539 CNS): 7.67 µM
TGI (SF-539 CNS): 16.9 µM
GI50 (OVCAR-3 ovarian): 8.2 µM
TGI (OVCAR-3 ovarian): 15.8 µM
GI50 (SF-268 CNS): 4.57 µM
TGI (SF-268 CNS): 47.5 µM
GI50 (HOP-92 NSCLC): 2.39 µM
TGI (HOP-92 NSCLC): 10.9 µM
GI50 (A498 renal): 9.79 µM
TGI (A498 renal): 17.4 µM
GI50 (UACC-62 melanoma): 8.45 µM
TGI (UACC-62 melanoma): 15.7 µM
GI50 (HCT-15 colon): 4.08 µM
TGI (HCT-15 colon): 11.3 µM
GI50 (PC-3 prostate): 5.14 µM
TGI (PC-3 prostate): 11.6 µM
GI50 (OVCAR-8 ovarian): 2.99 µM
TGI (OVCAR-8 ovarian): 10.7 µM
GI50 (HS 578T breast): 10.6 µM
TGI (HS 578T breast): 38.7 µM
GI50 (ACHN renal): 3.13 µM
TGI (ACHN renal): 9.72 µM
GI50 (OVCAR-4 ovarian): 8.01 µM
TGI (OVCAR-4 ovarian): 19.4 µM
GI50 (MDA-MB-231 breast): 6.33 µM
TGI (MDA-MB-231 breast): 13 µM
GI50 (U251 CNS): 7.43 µM
TGI (U251 CNS): 14.3 µM
GI50 (SNB-19 CNS): 7.03 µM
TGI (SNB-19 CNS): 16.2 µM
GI50 (NCI-H226 lung): 6 µM
TGI (NCI-H226 lung): 14.4 µM
GI50 (SN12C renal): 4.02 µM
TGI (SN12C renal): 11.2 µM
GI50 (COLO 205 colon): 5.6 µM
TGI (COLO 205 colon): 21.8 µM
GI50 (NCI-H23 lung): 7.08 µM
TGI (NCI-H23 lung): 13.8 µM
GI50 (SNB-75 CNS): 7 µM
TGI (SNB-75 CNS): 14.1 µM
GI50 (KM12 colon): 4.34 µM
TGI (KM12 colon): 14.1 µM
GI50 (RPMI-8226 leukemia): 0.861 µM
TGI (RPMI-8226 leukemia): 1.89 µM
GI50 (UACC-257 melanoma): 10.2 µM
TGI (UACC-257 melanoma): 18.4 µM
GI50 (SK-OV-3 ovarian): 9.49 µM
TGI (SK-OV-3 ovarian): 18.3 µM
GI50 (HCC-2998 colon): 0.738 µM
TGI (HCC-2998 colon): 4.4 µM
GI50 (SF-295 CNS): 5.75 µM
TGI (SF-295 CNS): 13.7 µM
GI50 (786-0 renal): 1.79 µM
TGI (786-0 renal): 6.87 µM
GI50 (MCF7 breast): 5.06 µM
TGI (MCF7 breast): 18.5 µM
GI50 (EKVX NSCLC): 8.16 µM
TGI (EKVX NSCLC): 17.3 µM
GI50 (TK-10 renal): 9.38 µM
TGI (TK-10 renal): 21.1 µM
GI50 (BT-549 breast): 9.92 µM
TGI (BT-549 breast): 19.7 µM
GI50 (LOX IMVI melanoma): 4.56 µM
TGI (LOX IMVI melanoma): 11.6 µM
GI50 (HOP-62 NSCLC): 1.49 µM
TGI (HOP-62 NSCLC): 6.82 µM
GI50 (OVCAR-5 ovarian): 5.79 µM
TGI (OVCAR-5 ovarian): 11.9 µM
GI50 (RXF 393 renal): 5.4 µM
TGI (RXF 393 renal): 12 µM
GI50 (A549 NSCLC): 7.37 µM
TGI (A549 NSCLC): 15 µM
GI50 (SW-620 colon): 1.59 µM
TGI (SW-620 colon): 50 µM
GI50 (SK-MEL-28 melanoma): 9.37 µM
TGI (SK-MEL-28 melanoma): 17.1 µM
GI50 (DU-145 prostate): 7.19 µM
TGI (DU-145 prostate): 17 µM
GI50 (CAKI-1 renal): 8.21 µM
TGI (CAKI-1 renal): 16.8 µM
GI50 (HT29 colon): 1.13 µM
TGI (HT29 colon): 4.31 µM
GI50 (M14 melanoma): 7.54 µM
TGI (M14 melanoma): 14.2 µM
GI50 (HCT-116 colon): 1.23 µM
TGI (HCT-116 colon): 5.79 µM
GI50 (NCI/ADR-RES ovarian): 4.2 µM
TGI (NCI/ADR-RES ovarian): 10.3 µM
GI50 (MDA-MB-435): 7.34 µM
TGI (MDA-MB-435): 15.5 µM
GI50 (SK-MEL-5 melanoma): 8.59 µM
TGI (SK-MEL-5 melanoma): 18.6 µM
GI50 (MALME-3M melanoma): 8.36 µM
TGI (MALME-3M melanoma): 19.8 µM

O=C1c2ccccc2-c2nnc(-c3ccccc3)cc21
TGI (SR leukemia): > 10 µM
TGI (NCI-H460 lung): > 10 µM
TGI (HL-60(TB) leukemia): > 10 µM
TGI (T-47D breast): > 10 µM
TGI (MOLT-4 leukemia): > 10 µM
TGI (SF-268 CNS): > 10 µM
TGI (UACC-62 melanoma): > 10 µM
TGI (ACHN renal): > 10 µM
TGI (OVCAR-4 ovarian): > 10 µM
TGI (U251 CNS): > 10 µM
TGI (K-562 leukemia): > 10 µM
TGI (COLO 205 colon): > 10 µM
TGI (NCI-H23 lung): > 10 µM
TGI (SNB-75 CNS): > 10 µM
TGI (RPMI-8226 leukemia): > 10 µM
TGI (IGROV1 ovarian): > 10 µM
TGI (SK-OV-3 ovarian): > 10 µM
TGI (786-0 renal): > 10 µM
TGI (MCF7 breast): > 10 µM
TGI (HOP-62 NSCLC): > 10 µM
TGI (OVCAR-5 ovarian): > 10 µM
TGI (RXF 393 renal): > 10 µM
TGI (A549 NSCLC): > 10 µM
TGI (SK-MEL-2 melanoma): > 10 µM
TGI (SW-620 colon): > 10 µM
TGI (SK-MEL-28 melanoma): > 10 µM
TGI (CAKI-1 renal): > 10 µM
TGI (M14 melanoma): > 10 µM
TGI (NCI/ADR-RES ovarian): > 10 µM
TGI (MDA-MB-435): > 10 µM
TGI (SK-MEL-5 melanoma): > 10 µM
TGI (CCRF-CEM leukemia): > 10 µM
TGI (MALME-3M melanoma): > 10 µM
